IC50 and Kd data for 15 compounds are collected here from patent publication US8802866B2, “Pyridinylimidazolone derivatives for the inhibition of PI3 kinases” (Merck Patent GmbH, priority 2009, dated 2014).

For orientation: IC50 means the concentration that gives 50% inhibition. For orientation: Kd means the free concentration of one partner at which half of the binding sites on the other are occupied at equilibrium, for simple one-to-one binding.

The target in one test is DNA-PK protein complex (Homo sapiens, UniProt P78527). The experiment in a line: Biochemical DNA-PK assay (FlashPlate). An outline of the steps:
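Streptavidin-coated FlashPlate radiometric kinase assay, stopped with 200 mM EDTA, then wells washed with 0.9% NaCl and bound radioactivity counted. Blank (non-specific reaction) defined with a proprietary kinase inhibitor at 10 μM.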

In the next test the target is T1, mTOR (Homo sapiens, UniProt P42345).
T1 construct: purchased Millipore 14-770
Put plainly: Biochemical mTOR assay (Millipore mTOR assay kit). Here is the method: The biochemical mTOR assay was carried out by the method described in the Millipore mTOR assay kit (catalogue number 14-770).

Test [1] deals with PI3K-dependent phosphorylation of PKB at Serin 473 in PC3 cells. The experiment in a line: Cellular PI3K assay (P-S473-PKB Luminex assay in PC3 cells). The format is cell-based. As to conditions: Homo sapiens, PC-3, 0.5 h; PC3 cells, 30 min, serum-free, P-S473-PKB; read-out: IC50 (cell). An outline of the steps:
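PC3 cells were exposed for 30 min under serum-free conditions to 7 concentrations of compound, then lysed. Lysates were captured overnight at 4°C on anti-total-PKB Luminex beads and detected with P-S473-PKB antibody plus PE-labelled secondary.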

The target of another test is PI3Kalpha (Homo sapiens, UniProt P42336). The experiment in a line: Biochemical PI3Kalpha assay (neomycin SPA, lipid phosphorylation). The following applies: human recombinant GST-PI3K. An outline of the steps: (§1)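 Recombinant PI3K incubated with lipid substrate and radioactive ATP for 120 min at room temperature with gentle stirring, then stopped with neomycin-coated PVT-SPA beads, ATP 60 mM and EDTA 6.2 mM in PBS. After 60 min bead binding and centrifugation, radioactive Ptdlns(3)P counted by scintillation.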

In another test the target is PI3Kbeta (Homo sapiens, UniProt P42338). The experiment in a line: Biochemical PI3Kbeta assay (neomycin SPA, lipid phosphorylation). The following applies: human recombinant GST-PI3K. An outline of the steps: as §1
In test [2] the target is recombinant PI3Kalpha (shortened form of the catalytic subunit) (Homo sapiens, UniProt P42336). The experiment in a line: BIACORE PI3K binding assay (SPR). The following applies: 25° C. Here is the method: SPR measurements of the binding affinities and binding kinetics on PI3Kalpha surfaces with the aid of Biacore systems. The experiments are carried out on a Biacore S51 “Compound Characterization” or a Biacore T100 instrument utilising the default application “Kinetics/Affinity” Experimental conditions: recombinant PI3Kalpha (shortened form of the catalytic subunit, missing N terminal from about 100 to 150 aa, Mw about 110 kDa, prepared by Proteros Biostructures GmbH) is immobilised on Biacore CM5 chips (25° C., flow rate: 10 μl/min, utilising amine coupling at pH 7.40—Biacore Standard protocol). PI3Kalpha is employed in concentrations between 10 and 25 μg/ml. Depending on the duration of the injection time, immobilisation levels from 1700 to 11000 RU are achieved. The substances to be measured are added in the form of a titration series. The substance concentration is doubled for each subsequent injection. 10 different substance concentrations which cover a 500-fold dilution range are usually injected. […] Kinetic titration experiments are carried out at 25° C. with a flow rate of 30 μl/min, the sample contact time is 180 s, and the dissociation time is 240 s in a running buffer (20 mM HEPES pH7.40, 150 mM NaCl, 5 mM MgCl2, 1 mM DTT, 0.1 mM EDTA, 0.05% Tween 20) comprising 2% of DMSO. Buffer injections (as double references) identical to the sample injections are carried out in each case at the beginning of a continuous series. Solvent correction cycles (eight correction points, 1.4%-2.8% DMSO) are carried out at equal intervals. In order to condition the surface, at least five start-up cycles (buffer injections) are carried out. Data points are collected with a sample rate of 10 Hz. Surface regeneration is carried out after each measurement cycle, apart from after the solvent correction runs. For this purpose, two times 100 mM NaHCO3 pH 8.60 are injected for 30 sec. Data sets are processed and analysed using the Biacore S51 Evaluation software, version 1.2.1, or Biacore T100 Evaluation, version 2.0. Solvent-corrected and double-referenced association and dissociation phase data are adapted to a simple 1:1 interaction model with mass transport limitations.
Sequence of recombinant PI3Kalpha (shortened form of the catalytic subunit) (P42336 151-1068 limits assumed): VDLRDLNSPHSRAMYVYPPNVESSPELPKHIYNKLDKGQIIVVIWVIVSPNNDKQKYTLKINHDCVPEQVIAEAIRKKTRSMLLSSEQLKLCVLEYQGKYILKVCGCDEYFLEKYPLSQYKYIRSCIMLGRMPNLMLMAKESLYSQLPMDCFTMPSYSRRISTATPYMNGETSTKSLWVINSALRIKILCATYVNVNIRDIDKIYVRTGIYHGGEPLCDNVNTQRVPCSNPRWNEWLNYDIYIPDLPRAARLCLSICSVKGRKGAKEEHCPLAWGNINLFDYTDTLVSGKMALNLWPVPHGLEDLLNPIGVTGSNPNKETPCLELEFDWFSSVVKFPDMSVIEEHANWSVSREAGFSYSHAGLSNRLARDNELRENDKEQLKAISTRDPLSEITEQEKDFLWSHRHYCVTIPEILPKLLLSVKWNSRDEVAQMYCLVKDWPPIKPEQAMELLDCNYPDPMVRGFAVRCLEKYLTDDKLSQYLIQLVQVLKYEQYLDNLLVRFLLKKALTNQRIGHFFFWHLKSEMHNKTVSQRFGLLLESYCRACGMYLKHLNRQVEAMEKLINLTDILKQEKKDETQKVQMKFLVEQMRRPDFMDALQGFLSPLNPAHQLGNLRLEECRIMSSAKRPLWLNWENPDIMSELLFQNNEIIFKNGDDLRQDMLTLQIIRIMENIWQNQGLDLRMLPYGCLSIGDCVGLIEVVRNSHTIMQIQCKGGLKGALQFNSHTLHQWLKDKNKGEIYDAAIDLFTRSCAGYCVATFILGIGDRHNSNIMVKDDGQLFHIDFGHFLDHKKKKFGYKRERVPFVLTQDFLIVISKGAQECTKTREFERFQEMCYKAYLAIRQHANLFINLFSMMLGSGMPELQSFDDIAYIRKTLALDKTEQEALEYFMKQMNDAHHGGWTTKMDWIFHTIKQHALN

Sequence of PI3Kalpha (P42336 whole entry): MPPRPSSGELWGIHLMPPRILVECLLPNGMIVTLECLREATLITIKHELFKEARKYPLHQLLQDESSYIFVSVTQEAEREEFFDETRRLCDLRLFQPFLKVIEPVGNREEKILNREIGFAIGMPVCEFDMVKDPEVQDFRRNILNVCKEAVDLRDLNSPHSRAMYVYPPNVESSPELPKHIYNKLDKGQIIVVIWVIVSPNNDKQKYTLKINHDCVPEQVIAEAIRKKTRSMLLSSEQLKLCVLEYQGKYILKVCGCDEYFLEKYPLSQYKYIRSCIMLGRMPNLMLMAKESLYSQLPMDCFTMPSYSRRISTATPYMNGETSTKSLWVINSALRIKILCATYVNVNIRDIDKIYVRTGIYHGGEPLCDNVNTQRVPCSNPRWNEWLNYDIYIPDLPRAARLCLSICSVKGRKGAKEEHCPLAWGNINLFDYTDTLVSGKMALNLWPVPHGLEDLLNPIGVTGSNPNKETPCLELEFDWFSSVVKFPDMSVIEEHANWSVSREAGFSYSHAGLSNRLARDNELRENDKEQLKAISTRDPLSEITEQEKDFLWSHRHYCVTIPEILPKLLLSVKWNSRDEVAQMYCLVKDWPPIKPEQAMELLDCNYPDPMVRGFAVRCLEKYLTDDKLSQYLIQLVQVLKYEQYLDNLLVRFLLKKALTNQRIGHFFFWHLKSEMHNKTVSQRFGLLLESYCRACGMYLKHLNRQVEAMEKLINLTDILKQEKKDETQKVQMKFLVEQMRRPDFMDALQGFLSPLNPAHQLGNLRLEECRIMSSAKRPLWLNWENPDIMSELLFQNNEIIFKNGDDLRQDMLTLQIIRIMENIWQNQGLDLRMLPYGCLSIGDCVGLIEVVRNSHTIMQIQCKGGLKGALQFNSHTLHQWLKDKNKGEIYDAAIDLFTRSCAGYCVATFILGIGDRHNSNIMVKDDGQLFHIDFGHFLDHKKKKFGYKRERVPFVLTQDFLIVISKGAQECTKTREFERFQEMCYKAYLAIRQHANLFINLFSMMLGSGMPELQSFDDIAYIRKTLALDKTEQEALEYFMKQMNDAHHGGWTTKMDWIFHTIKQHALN
Sequence of PI3Kalpha (P27986 whole entry partner): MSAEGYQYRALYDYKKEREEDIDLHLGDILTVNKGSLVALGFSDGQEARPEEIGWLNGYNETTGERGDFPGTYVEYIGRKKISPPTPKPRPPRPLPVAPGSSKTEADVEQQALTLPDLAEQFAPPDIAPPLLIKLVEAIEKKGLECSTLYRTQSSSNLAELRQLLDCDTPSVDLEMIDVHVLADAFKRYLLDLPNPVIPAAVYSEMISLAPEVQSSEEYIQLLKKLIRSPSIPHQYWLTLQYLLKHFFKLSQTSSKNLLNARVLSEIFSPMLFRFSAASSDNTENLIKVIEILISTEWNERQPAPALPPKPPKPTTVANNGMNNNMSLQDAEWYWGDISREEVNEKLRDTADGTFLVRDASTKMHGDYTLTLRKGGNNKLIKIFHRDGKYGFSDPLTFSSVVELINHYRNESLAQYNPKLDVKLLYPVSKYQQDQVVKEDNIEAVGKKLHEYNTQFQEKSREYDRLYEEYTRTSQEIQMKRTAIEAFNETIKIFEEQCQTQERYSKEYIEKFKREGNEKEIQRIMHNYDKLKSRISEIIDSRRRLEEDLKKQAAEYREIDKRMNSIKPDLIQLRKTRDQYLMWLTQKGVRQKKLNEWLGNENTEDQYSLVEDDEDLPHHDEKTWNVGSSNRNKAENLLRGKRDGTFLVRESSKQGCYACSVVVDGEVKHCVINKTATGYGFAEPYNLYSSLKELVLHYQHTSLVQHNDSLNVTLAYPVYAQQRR
Sequence of PI3Kbeta (P42338 whole entry, the tested form may be a part): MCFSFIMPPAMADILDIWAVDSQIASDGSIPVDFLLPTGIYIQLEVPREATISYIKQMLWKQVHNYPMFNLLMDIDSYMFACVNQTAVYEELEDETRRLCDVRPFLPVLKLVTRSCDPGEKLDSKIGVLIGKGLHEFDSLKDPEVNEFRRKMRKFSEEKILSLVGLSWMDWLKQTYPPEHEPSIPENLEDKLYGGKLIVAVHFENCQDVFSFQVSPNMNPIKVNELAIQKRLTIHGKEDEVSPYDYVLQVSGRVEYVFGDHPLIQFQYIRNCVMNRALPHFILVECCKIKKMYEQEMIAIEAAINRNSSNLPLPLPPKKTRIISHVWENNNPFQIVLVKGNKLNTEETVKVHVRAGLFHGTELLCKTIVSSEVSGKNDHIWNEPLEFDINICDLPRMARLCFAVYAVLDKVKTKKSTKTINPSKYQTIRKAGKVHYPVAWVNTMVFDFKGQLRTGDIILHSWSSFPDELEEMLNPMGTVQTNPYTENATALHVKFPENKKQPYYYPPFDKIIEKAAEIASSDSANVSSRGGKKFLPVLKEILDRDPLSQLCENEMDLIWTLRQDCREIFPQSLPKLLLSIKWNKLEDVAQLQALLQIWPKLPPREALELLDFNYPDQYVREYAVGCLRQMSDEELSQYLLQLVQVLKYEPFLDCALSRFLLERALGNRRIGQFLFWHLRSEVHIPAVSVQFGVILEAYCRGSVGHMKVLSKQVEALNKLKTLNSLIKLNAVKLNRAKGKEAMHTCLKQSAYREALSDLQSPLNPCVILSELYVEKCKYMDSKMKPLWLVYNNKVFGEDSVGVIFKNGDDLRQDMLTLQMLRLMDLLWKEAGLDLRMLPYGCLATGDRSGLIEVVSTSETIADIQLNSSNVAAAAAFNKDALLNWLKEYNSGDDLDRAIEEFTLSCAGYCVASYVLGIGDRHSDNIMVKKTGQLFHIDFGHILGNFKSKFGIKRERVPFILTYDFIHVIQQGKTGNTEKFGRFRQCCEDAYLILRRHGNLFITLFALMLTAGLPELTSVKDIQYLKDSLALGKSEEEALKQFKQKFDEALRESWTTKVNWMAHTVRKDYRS
Sequence of PI3Kbeta (P27986 whole entry partner, the tested form may be a part): as the sequence (P27986 whole entry partner) above
T1 sequence (P42345 1362-2549 limits assumed): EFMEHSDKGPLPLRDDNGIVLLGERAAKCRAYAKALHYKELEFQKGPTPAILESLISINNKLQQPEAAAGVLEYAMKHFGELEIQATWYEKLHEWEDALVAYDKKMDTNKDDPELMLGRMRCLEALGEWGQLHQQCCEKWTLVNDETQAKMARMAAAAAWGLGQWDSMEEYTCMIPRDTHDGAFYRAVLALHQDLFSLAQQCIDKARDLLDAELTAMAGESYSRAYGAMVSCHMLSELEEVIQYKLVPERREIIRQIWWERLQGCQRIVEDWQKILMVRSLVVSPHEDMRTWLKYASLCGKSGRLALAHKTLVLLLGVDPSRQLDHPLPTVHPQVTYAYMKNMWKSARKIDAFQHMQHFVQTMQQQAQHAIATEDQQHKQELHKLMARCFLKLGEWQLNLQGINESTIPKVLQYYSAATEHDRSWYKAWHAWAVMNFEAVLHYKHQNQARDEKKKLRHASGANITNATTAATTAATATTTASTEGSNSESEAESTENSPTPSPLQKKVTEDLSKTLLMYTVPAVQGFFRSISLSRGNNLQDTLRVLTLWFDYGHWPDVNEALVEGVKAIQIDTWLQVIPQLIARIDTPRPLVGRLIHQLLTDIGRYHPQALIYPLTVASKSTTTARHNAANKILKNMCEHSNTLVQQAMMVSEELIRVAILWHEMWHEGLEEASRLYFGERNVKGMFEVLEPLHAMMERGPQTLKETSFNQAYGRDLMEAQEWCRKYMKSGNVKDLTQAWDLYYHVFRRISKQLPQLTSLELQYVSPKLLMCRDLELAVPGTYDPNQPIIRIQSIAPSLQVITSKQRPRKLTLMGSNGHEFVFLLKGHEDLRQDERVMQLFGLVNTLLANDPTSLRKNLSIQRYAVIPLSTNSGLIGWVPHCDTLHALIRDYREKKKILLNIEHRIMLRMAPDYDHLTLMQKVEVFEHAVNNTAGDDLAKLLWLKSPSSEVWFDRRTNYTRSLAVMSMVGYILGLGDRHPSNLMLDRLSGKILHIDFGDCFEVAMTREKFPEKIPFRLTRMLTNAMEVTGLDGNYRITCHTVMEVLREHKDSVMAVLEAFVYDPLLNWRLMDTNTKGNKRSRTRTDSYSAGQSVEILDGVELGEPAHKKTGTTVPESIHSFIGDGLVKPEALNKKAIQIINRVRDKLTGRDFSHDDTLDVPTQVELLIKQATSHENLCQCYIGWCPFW

In the case of `Cn1cc(-c2cc(-c3ccc(=O)[nH]c3)ccn2)n(-c2ccc(C(C)(C)C#N)cc2)c1=O` [Example A39, 2-{4-[5-(6-Hydroxy-[3,4′]bipyridinyl-2′-yl)-3-methyl-2-oxo-2,3-dihydroimidazol-1-yl]phenyl}-2-methylpropionitrile], the IC50 against DNA-PK protein complex was 0.1 to 100 nM; on mTOR, 100 to 10000 nM; in test [1], over 10000 nM.

Consider `Cn1cc(-c2cc(-c3cnc4[nH]ccc4c3)ccn2)n(-c2ccc(F)c(C(F)(F)F)c2)c1=O` [Example A51, 3-(4-Fluoro-3-trifluoromethylphenyl)-1-methyl-4-[4-(1H-pyrrolo[2,3-b]pyridin-5-yl)pyridin-2-yl]-1,3-dihydroimidazol-2-one], for which the IC50 against DNA-PK protein complex is 0.1 to 100 nM; against mTOR, 100 to 10000 nM; at PI3Kalpha, 100 to 10000 nM; on PI3Kbeta it was over 10000 nM; in test [1], 100 to 10000 nM.

For `Cn1cc(-c2cc(-c3ccc(NS(C)(=O)=O)nc3)ccn2)n(-c2ccc(N3CCNCC3)c(C(F)(F)F)c2)c1=O` [Example A61, N-{2′-[1-Methyl-2-oxo-3-(4-piperazin-1-yl-3-trifluoromethylphenyl)-2,3-dihydro-1H-imidazol-4-yl]-[3,4′]bipyridinyl-6-yl}methanesulfonamide], the IC50 against DNA-PK protein complex is 0.1 to 100 nM; against mTOR it was 100 to 10000 nM; on PI3Kalpha, 100 to 10000 nM; at PI3Kbeta it was over 10000 nM; in test [1], over 10000 nM.

With `Cn1cc(-c2cc(-c3cnc4[nH]ccc4c3)ccn2)n(-c2ccc(N3CCN(S(C)(=O)=O)CC3)c(C(F)(F)F)c2)c1=O` [Example A74, 3-[4-(4-Methanesulfonylpiperazin-1-yl)-3-trifluoromethylphenyl]-1-methyl-4-[4-(1H-pyrrolo[2,3-b]pyridin-5-yl)pyridin-2-yl]-1,3-dihydroimidazol-2-one], the IC50 fell in the range of 0.1 to 100 nM at DNA-PK protein complex; 0.1 to 100 nM at mTOR; 100 to 10000 nM on PI3Kalpha; 100 to 10000 nM on PI3Kbeta; 0.1 to 100 nM in test [1].

With `N#Cc1cccc(-n2c(-c3cc(-c4cnc5[nH]ccc5c4)ccn3)cn(C(F)F)c2=O)c1` [Example A75, 3-{3-Difluoromethyl-2-oxo-5-[4-(1H-pyrrolo[2,3-b]pyridin-5-yl)pyridin-2-yl]-2,3-dihydroimidazol-1-yl}benzonitrile], the half-maximal inhibitory concentration (IC50) against DNA-PK protein complex was 0.1 to 100 nM; against mTOR, 100 to 10000 nM; at PI3Kalpha, 100 to 10000 nM; at PI3Kbeta, over 10000 nM; in test [1], 100 to 10000 nM.

`Cn1cc(-c2cc(-c3cnc4[nH]ccc4c3)ccn2)n(-c2ccccc2OC(F)(F)F)c1=O` [Example A76, 1-Methyl-4-[4-(1H-pyrrolo[2,3-b]pyridin-5-yl)pyridin-2-yl]-3-(2-trifluoromethoxy-phenyl)-1,3-dihydroimidazol-2-one]: the IC50 is 0.1 to 100 nM against DNA-PK protein complex; 0.1 to 100 nM against mTOR; over 10000 nM at PI3Kalpha; over 10000 nM at PI3Kbeta; over 10000 nM in test [1].

With `Cc1cc2cc(-c3ccnc(-c4cn(C)c(=O)n4-c4ccc(N5CCN(C)CC5)c(C(F)(F)F)c4)c3)cnc2[nH]1` [Example A88, 1-Methyl-3-[4-(4-methylpiperazin-1-yl)-3-trifluoromethylphenyl]-4-[4-(2-methyl-1H-pyrrolo[2,3-b]pyridin-5-yl)pyridin-2-yl]-1,3-dihydroimidazol-2-one], the IC50 (against DNA-PK protein complex; at PI3Kalpha; on PI3Kbeta; in test [1]) was 100 to 10000 nM each time. Moreover, in test [2], the Kd is 100 to 10000 nM.

Consider `CC(=O)N1CCN(c2ccc(-n3c(-c4cc(-c5ccc6[nH]ccc6c5)ccn4)cn(C)c3=O)cc2C(F)(F)F)CC1` [Example A89, 3-[4-(4-Acetylpiperazin-1-yl)-3-trifluoromethylphenyl]-4-[4-(1H-indol-5-yl)pyridin-2-yl]-1-methyl-1,3-dihydroimidazol-2-one], for which the IC50 was 100 to 10000 nM against DNA-PK protein complex, 100 to 10000 nM at PI3Kalpha, over 10000 nM at PI3Kbeta and 100 to 10000 nM in test [1]. Further, in test [2], the equilibrium dissociation constant (Kd) fell in the range of 100 to 10000 nM.

Consider `Cn1cc(-c2cc(-c3cnc4[nH]ccc4c3)ccn2)n(-c2cccc(Oc3ccccc3)c2)c1=O` [Example A90, 1-Methyl-3-(3-phenoxyphenyl)-4-[4-(1H-pyrrolo[2,3-b]pyridin-5-yl)pyridin-2-yl]-1,3-dihydroimidazol-2-one], for which the 50% inhibitory concentration (IC50) against DNA-PK protein complex was 0.1 to 100 nM; on PI3Kalpha, 100 to 10000 nM; at PI3Kbeta, 100 to 10000 nM; in test [1], 0.1 to 100 nM. Also, the dissociation constant Kd in test [2] is 0.1 to 100 nM.

With `Cn1cc(-c2cc(-c3cnc(N)c(C(F)(F)F)c3)ccn2)n(-c2ccc(F)c(C(F)(F)F)c2)c1=O` [Example A97, 4-(6-Amino-5-trifluoromethyl-[3,4′]bipyridinyl-2′-yl)-3-(4-fluoro-3-trifluoromethyl-phenyl)-1-methyl-1,3-dihydroimidazol-2-one], the 50% inhibitory concentration (IC50) (against DNA-PK protein complex; on PI3Kalpha; at PI3Kbeta; in test [1]) was 100 to 10000 nM throughout. Further, the Kd in test [2] lay within 100 to 10000 nM.

For `CN1CCN(c2cc(C#N)cc(-n3c(-c4cc(-c5cnc6[nH]ccc6c5)ccn4)cn(C)c3=O)c2)CC1` [Example A98, 3-{3-Methyl-2-oxo-5-[4-(1H-pyrrolo[2,3-b]pyridin-5-yl)pyridin-2-yl]-2,3-dihydro-imidazol-1-yl}-5-(4-methylpiperazin-1-yl)benzonitrile], the half-maximal inhibitory concentration (IC50) against DNA-PK protein complex was 100 to 10000 nM; on PI3Kalpha, 100 to 10000 nM; on PI3Kbeta, 100 to 10000 nM; in test [1], over 10000 nM. The Kd in test [2] is 100 to 10000 nM.

For the compound `CCc1cc(-c2c[nH]c3ncc(-c4ccnc(-c5cn(C)c(=O)n5-c5ccc(C(C)(C)C#N)cc5)c4)cc23)nc(N)n1` [Example A99, 2-[4-(5-{4-[3-(2-Amino-6-ethylpyrimidin-4-yl)-1H-pyrrolo[2,3-b]pyridin-5-yl]-pyridin-2-yl}-3-methyl-2-oxo-2,3-dihydroimidazol-1-yl)phenyl]-2-methylpropionitrile], the half-maximal inhibitory concentration (IC50) is 0.1 to 100 nM against DNA-PK protein complex, 100 to 10000 nM at PI3Kalpha, 100 to 10000 nM at PI3Kbeta and 100 to 10000 nM in test [1]. Besides, the Kd in test [2] lay in the range of 100 to 10000 nM.

Regarding `COc1ccc(Cn2c(-c3cc(-c4cnc5[nH]ccc5c4)ccn3)cn(C)c2=O)cc1` [Example A108, 3-(4-Methoxybenzyl)-1-methyl-4-[4-(1H-pyrrolo[2,3-b]pyridin-5-yl)pyridin-2-yl]-1,3-dihydroimidazol-2-one], the half-maximal inhibitory concentration (IC50) against DNA-PK protein complex was 0.1 to 100 nM; at PI3Kalpha, over 10000 nM; at PI3Kbeta, over 10000 nM; in test [1], 100 to 10000 nM. The Kd in test [2] fell in the range of 100 to 10000 nM.

With `COc1ccc(Cn2c(-c3cc(-c4cnc5[nH]ncc5c4)ccn3)cn(C)c2=O)cc1` [Example A109, 3-(4-Methoxybenzyl)-1-methyl-4-[4-(1H-pyrazolo[3,4-b]pyridin-5-yl)pyridin-2-yl]-1,3-dihydroimidazol-2-one], the IC50 against DNA-PK protein complex was in the range of 0.1 to 100 nM; at PI3Kalpha it was 100 to 10000 nM; at PI3Kbeta, 100 to 10000 nM; in test [1], 100 to 10000 nM. For the same compound, the Kd in test [2] fell in the range of 100 to 10000 nM.

On to `COc1ccc(Cn2c(-c3cc(-c4cnc(N)c(C(F)(F)F)c4)ccn3)cn(C)c2=O)cc1` [Example A110, 4-(6-Amino-5-trifluoromethyl-[3,4′]bipyridinyl-2′-yl)-3-(4-methoxybenzyl)-1-methyl-1,3-dihydroimidazol-2-one], for which the IC50 (against DNA-PK protein complex; at PI3Kalpha; at PI3Kbeta; in test [1]) was 100 to 10000 nM each time. In addition, the equilibrium dissociation constant (Kd) in test [2] lay within 100 to 10000 nM.
